Where only a bound is given, the exact number is not on record here.

The target in one assay is EGFR (Homo sapiens, UniProt P00533). Nature of the assay: EGFR signaling (pEGFR Tyr1068/total EGFR MSD) in A431 cells. The conditions noted are these: for EC50: A431 cells, read-out: A431 pEGFR EC50; for Selectivity A431 EC50/BT474 EC50: ratio A431 pEGFR EC50 to BT474 pHER2 EC50; for Selectivity A431 EC50/HEKYVMA EC50: ratio A431 pEGFR EC50 to HEK YVMA pHER2 EC50. The class given is cell-based. Also on record: endogenous in cells; host or cells: A431, N87. The gist of the method:
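EC50 was fitted with variable Hill slope from MSD pTyr1068/total EGFR ratios, expressed as % DMSO control. A431 cells were starved overnight, then exposed 1.5 h to eight concentrations from 10 to 0.005 μM in 1% FBS before a 10-min 100 ng/mL EGF pulse.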

For a further assay, the target named is HER2YVMA (Homo sapiens, UniProt P04626, INS775YVMA). Nature of the assay: HER2 signaling (pHER2) in Hek293-HER2YVMA cells. The class given is cell-based. Also on record: expressed in transfected cells; host or cells: HEK293 (pool), Ba/F3 (clones), BEAS2B (clones); lentiviral vector pCDH-CMV-MCS-EF1-Neo. The conditions noted are these: 1.5 hr compound, 1% FBS, read-out: HEKYVMA pHER2 EC50. The method in brief: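 Lentivirally transduced HER2YVMA lines (HEK293 pool; BEAS2B clone) treated 1.5 h at 37 °C in 1% FBS medium with compound at 0.0005–1.1 μM. Lysates read by MSD immunoassay for pHER2 (Tyr1248) normalized to total HER2, as % DMSO control; EC50 from variable-slope sigmoidal fit.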
Sequence of HER2YVMA (P04626 with tags, fused parts or gaps INS775YVMA): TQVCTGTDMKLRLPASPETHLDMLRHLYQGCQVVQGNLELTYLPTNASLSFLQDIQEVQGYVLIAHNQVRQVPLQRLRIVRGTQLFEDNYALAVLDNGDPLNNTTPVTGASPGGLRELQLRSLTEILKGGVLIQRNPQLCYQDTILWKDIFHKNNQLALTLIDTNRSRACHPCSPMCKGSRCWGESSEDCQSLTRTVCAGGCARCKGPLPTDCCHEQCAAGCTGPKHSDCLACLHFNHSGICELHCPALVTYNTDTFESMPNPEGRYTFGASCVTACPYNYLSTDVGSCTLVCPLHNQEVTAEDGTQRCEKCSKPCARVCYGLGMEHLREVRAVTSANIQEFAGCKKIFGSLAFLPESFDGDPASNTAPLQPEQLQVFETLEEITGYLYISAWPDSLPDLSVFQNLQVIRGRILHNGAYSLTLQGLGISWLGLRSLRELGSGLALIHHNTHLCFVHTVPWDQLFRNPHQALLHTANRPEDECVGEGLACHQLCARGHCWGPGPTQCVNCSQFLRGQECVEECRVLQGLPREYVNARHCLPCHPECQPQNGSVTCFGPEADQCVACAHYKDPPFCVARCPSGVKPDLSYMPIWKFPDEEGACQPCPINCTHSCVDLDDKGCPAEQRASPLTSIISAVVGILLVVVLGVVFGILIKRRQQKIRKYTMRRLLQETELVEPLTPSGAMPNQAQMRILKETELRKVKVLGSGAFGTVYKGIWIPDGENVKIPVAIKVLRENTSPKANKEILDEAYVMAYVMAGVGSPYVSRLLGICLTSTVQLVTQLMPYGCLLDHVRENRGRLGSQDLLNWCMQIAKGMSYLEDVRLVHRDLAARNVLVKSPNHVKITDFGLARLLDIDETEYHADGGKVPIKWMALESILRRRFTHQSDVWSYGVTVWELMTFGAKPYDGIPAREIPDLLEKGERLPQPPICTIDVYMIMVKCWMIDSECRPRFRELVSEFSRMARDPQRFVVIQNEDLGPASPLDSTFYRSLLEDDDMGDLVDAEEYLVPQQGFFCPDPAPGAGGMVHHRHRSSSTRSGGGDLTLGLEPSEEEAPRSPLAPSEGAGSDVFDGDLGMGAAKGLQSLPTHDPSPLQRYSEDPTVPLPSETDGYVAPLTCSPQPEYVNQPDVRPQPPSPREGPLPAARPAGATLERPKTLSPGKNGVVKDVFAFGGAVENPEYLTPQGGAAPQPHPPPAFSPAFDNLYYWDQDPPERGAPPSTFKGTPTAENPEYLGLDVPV

Sequence of EGFR (P00533 25-1210): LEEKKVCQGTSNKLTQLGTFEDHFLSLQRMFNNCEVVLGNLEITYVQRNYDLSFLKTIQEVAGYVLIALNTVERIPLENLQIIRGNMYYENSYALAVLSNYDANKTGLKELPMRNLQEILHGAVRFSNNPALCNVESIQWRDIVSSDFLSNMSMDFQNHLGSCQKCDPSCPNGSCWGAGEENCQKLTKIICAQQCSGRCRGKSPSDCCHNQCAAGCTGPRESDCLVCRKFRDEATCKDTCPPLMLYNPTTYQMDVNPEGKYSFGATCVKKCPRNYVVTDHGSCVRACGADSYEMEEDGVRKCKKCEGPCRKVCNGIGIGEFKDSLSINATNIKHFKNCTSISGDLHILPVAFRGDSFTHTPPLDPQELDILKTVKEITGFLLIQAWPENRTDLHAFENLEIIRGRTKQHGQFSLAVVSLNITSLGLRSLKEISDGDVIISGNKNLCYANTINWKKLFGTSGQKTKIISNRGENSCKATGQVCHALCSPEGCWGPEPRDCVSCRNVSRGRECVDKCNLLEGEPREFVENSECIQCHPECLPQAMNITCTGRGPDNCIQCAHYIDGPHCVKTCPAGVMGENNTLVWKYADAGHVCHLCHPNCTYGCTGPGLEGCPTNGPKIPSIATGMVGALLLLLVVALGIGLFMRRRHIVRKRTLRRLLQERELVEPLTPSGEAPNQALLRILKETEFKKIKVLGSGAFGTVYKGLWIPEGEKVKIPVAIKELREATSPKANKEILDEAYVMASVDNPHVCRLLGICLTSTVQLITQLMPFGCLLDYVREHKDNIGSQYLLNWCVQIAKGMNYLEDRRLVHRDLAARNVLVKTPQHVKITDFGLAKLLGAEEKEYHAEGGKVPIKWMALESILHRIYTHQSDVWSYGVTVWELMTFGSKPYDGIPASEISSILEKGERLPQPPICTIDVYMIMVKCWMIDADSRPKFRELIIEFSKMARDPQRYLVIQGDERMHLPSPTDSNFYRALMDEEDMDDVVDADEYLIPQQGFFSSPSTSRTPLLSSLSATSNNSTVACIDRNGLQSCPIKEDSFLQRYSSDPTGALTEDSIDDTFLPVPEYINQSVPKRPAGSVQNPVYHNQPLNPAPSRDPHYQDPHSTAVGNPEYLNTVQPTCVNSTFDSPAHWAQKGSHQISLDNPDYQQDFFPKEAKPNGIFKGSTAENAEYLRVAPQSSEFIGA

`C=CC(=O)N1Cc2sc3ncnc(Nc4ccc(Oc5ccc(C)nc5)c(C)c4)c3c2C(C)C1` (stereo not drawn) [Compound 142, 1-(5-methyl-4-((3-methyl-4-((6-methylpyridin-3-yl)oxy)phenyl)amino)-5,6-dihydropyrido[4′,3′:4,5]thieno[2,3-d]pyrimidin-7(8H)-yl)prop-2-en-1-one]: on EGFR, the EC50 (usually the concentration giving half of the maximal effect) was in the range of 0.1 to 1 µM; the “Selectivity A431 EC50/BT474 EC50” value was “B (B: ≥ 20 and < 100)”; the “Selectivity A431 EC50/HEKYVMA EC50” value is “B (B: ≥ 20 and < 100)”. The 50% effective concentration (EC50) at HER2YVMA was less than 0.1 µM.
`COc1ccc(Oc2ccc(Nc3ncnc4sc5c(c34)C(C)CN(C(=O)C=CCN(C)C)C5)cc2C)cn1` (single isomer, unassigned) [Compound 159]: on EGFR, the EC50 was in the range of 0.1 to 1 µM; the “Selectivity A431 EC50/BT474 EC50” value is “C (C: ≥ 10 and < 20)”; the “Selectivity A431 EC50/HEKYVMA EC50” value is “E (E: >1 and < 5)”. Also, the concentration for a half-maximal effect (EC50) on HER2YVMA is less than 0.1 µM.
Take `Cc1ccc(Oc2ccc(Nc3ncnc4sc5c(c34)C(C)CN(C(=O)/C=C/CN(C)C)C5)cc2Cl)cn1` (stereo not drawn) [Compound 171, (E)-1-(4-((3-Chloro-4-((6-methylpyridin-3-yl)oxy)phenyl)amino)-5-methyl-5,6-dihydropyrido[4′,3′:4,5]thieno[2,3-d]pyrimidin-7(8H)-yl)-4-(dimethylamino)but-2-en-1-one]: on EGFR, the EC50 is less than 0.1 µM; the “Selectivity A431 EC50/BT474 EC50” value is “A (A: ≥100)”; the “Selectivity A431 EC50/HEKYVMA EC50” value was “E (E: >1 and < 5)”. In addition, the EC50 on HER2YVMA is less than 0.1 µM.
`COc1ccc(Oc2ccc(Nc3ncnc4sc5c(c34)CCN(C(=O)/C=C/CN(C)C)CC5)cc2C)cn1` [Compound 173, (E)-4-(Dimethylamino)-1-(4-((4-((6-methoxypyridin-3-yl)oxy)-3-methylphenyl)amino)-8,9-dihydro-5H-pyrimido[5′,4′:4,5]thieno[2,3-d]azepin-7(6H)-yl)but-2-en-1-one]: at EGFR, the EC50 fell in the range of 1 to 10 µM; the “Selectivity A431 EC50/BT474 EC50” value was “B (B: ≥ 20 and < 100)”; the “Selectivity A431 EC50/HEKYVMA EC50” value is “C (C: ≥ 10 and < 20)”. Moreover, the 50% effective concentration (EC50) at HER2YVMA was in the range of 0.1 to 0.35 µM.
As to `Cc1ccc(Oc2ccc(Nc3ncnc4sc5c(c34)CCN(C(=O)/C=C/CN3CC(CO)(CO)C3)C5)cc2C)cn1` [Compound 134], at EGFR, the EC50 lay within 1 to 10 µM; the “Selectivity A431 EC50/BT474 EC50” value was “B (B: ≥ 20 and < 100)”; the “Selectivity A431 EC50/HEKYVMA EC50” value is “B (B: ≥ 20 and < 100)”. In addition, on HER2YVMA, the EC50 lay in the range of 0.1 to 0.35 µM.
For the compound `Cc1ccc(Oc2ccc(Nc3ncnc4sc5c(c34)CCN(C(=O)/C=C/CN3CC(F)(CO)C3)C5)cc2C)cn1` [Compound 151], at EGFR, the EC50 was in the range of 0.1 to 1 µM; the “Selectivity A431 EC50/BT474 EC50” value is “B (B: ≥ 20 and < 100)”; the “Selectivity A431 EC50/HEKYVMA EC50” value was “E (E: >1 and < 5)”. The EC50 on HER2YVMA was in the range of 0.1 to 0.35 µM.
Take `Cc1ccc(Oc2ccc(Nc3ncnc4sc5c(c34)CCN(C(=O)/C=C/CN3CCCC(c4nccs4)C3)C5)cc2C)cn1` (stereo not drawn) [Compound 113]: on EGFR, the EC50 lay in the range of 0.1 to 1 µM; the “Selectivity A431 EC50/BT474 EC50” value is “B (B: ≥ 20 and < 100)”; the “Selectivity A431 EC50/HEKYVMA EC50” value was “C (C: ≥ 10 and < 20)”. In addition, on HER2YVMA, the EC50 is less than 0.1 µM.
In the case of `Cc1ccc(Oc2ccc(Nc3ncnc4sc5c(c34)CN(C(=O)C=CCN(C)C)C5C)cc2C)cn1` (single isomer, unassigned) [Compound 170], on EGFR, the EC50 is less than 0.1 µM; the “Selectivity A431 EC50/BT474 EC50” value is “B (B: ≥ 20 and < 100)”; the “Selectivity A431 EC50/HEKYVMA EC50” value is “B (B: ≥ 20 and < 100)”. Further, the EC50 at HER2YVMA lay within 0.35 to 1 µM.
In the case of `Cc1ccc(Oc2ccc(Nc3ncnc4sc5c(c34)CCN(C(=O)/C=C/CN3C[C@H]4C[C@@H]3CC4C#N)C5)cc2C)cn1` (stereo partly drawn) [Compound 120], on EGFR, the EC50 fell in the range of 0.1 to 1 µM; the “Selectivity A431 EC50/BT474 EC50” value was “B (B: ≥ 20 and < 100)”; the “Selectivity A431 EC50/HEKYVMA EC50” value was “B (B: ≥ 20 and < 100)”. For the same compound, the EC50 at HER2YVMA was less than 0.1 µM.

The record behind these values is patent US20240391931A1 (Bristol-Myers Squibb Company, priority 2021, published 2024).
